{
  "source": "patent EP0185020B1",
  "about": "“NI[…] PREPARATION THEREOF AND UTILIZATION THEREOF IN ANTICANCEROUS CHEMIOTHERAPY” (CENTRE NATIONAL DE LA RECHERCHE SCIENTIFIQUE (CNRS), priority 1984, dated 1985)",
  "key": {"[1]": {"tested_on": "leucémie L 1210 greffée i.p.", "test": "Antitumour activity on L1210 leukaemia grafted i.p. in mice, A1 and A2 injected separately (ICIG, Example 12)", "assay_type": "in vivo, souris B6D2F1/OLA", "details": "for activité antitumorale sur la leucémie L 1210, in words: each isomer given separately i.v.; for T/C × 100: i.v.", "from_the_text": "Au jour J: 0, des souris mâles B6D2F1 âgées de trois mois reçoivent par voie intrapéritonéale 10^5 cellules de la souche leucémique L 1210. Les animaux sont répartis en lots de 8 à 10 animaux pour les groupes témoins et de 6 à 8 animaux pour les groupes traités. Aux jours J : 1, J : 5, J : 9, les animaux reçoivent par voie intrapéritonéale ou intraveineuse le traitement à différentes doses. La CNCC est administrée en suspension dans l'huile d'olive. Les produits selon l'invention sont administrés dans du sérum physiologique. La mortalité est enregistrée tous les jours. La médiane de survie des animaux traités et des animaux témoins a été déterminée. Les résultats sont considérés comme positifs lorsque l'index I = [formula] est supérieur à 125.\nLa valeur ∞ signifie que 50 à 100% des animaux sont survivants au jour J : 90.\nL'activité cytostatique sur la leucémie L 1210 de A, et A2 a été évaluée à l'ICIG chez des souris B6D2F1/OLA.\nII a en outre été procédé à l'ICIG à une étude de l'activité antitumorale sur la leucémie L 1210 de chaque isomère A, et AZ administré séparément par voie intraveineuse. Les résultats sont rassemblés sur le tableau IV. […] La comparaison des doses actives à celles de la CNCC est impossible pour les raisons d'insolubilité de la CNCC énoncées précédemment."}, "[2]": {"tested_on": "Leucémie L 1210 (greffée par voie i.c.)", "parameters": "key: N.S.: Non significatif; ∞: 50% en plus des animaux traités sont guéris", "details": "Leucémie L 1210 i.c., jours 1,5,9, cited from earlier work"}, "[3]": {"tested_on": "Carcinome pulmonaire de Lewis (implanté en sous-cutané)", "parameters": "key: N.S.: Non significatif; ∞: 50% en plus des animaux traités sont guéris", "details": "jours 1,5,9, cited from earlier work"}, "[4]": {"tested_on": "Gliome 26 (implanté en sous-cutané)", "parameters": "key: N.S.: Non significatif; ∞: 50% en plus des animaux traités sont guéris", "details": "Gliome 26 s.c., jours 1,5,9, cited from earlier work"}, "[5]": {"tested_on": "Fibrosarcome I.C.I.G. C1 (implanté en sous-cutané)", "parameters": "key: N.S.: Non significatif; ∞: 50% en plus des animaux traités sont guéris", "details": "jours 1,5,9, cited from earlier work"}, "[6]": {"tested_on": "M 555 ovarienne (implanté en sous-cutané)", "parameters": "key: N.S.: Non significatif; ∞: 50% en plus des animaux traités sont guéris", "details": "M 555 ovarienne s.c., jours 1,5,9, cited from earlier work"}, "[7]": {"tested_on": "Mélano-carcinome B 16 (implanté en sous-cutané)", "parameters": "key: N.S.: Non significatif; ∞: 50% en plus des animaux traités sont guéris", "details": "Mélano-carcinome B 16 s.c., jours 1,5,9, cited from earlier work"}, "[8]": {"tested_on": "Adénocarcinome mammaire TM2 (implanté en sous-cutané)", "parameters": "key: N.S.: Non significatif; ∞: 50% en plus des animaux traités sont guéris", "details": "jours 1,5,9, cited from earlier work"}, "[9]": {"tested_on": "Carcinome du côlon (côlon 26) (implanté en sous-cutané)", "parameters": "key: N.S.: Non significatif; ∞: 50% en plus des animaux traités sont guéris", "details": "Carcinome du côlon (côlon 26) s.c., jours 1,5,9, cited from earlier work"}},
  "note": "Read-outs that look alike come from different tables or passages of the source.",
  "data": [
    {"smiles": "C[S+]([O-])CCN(N=O)C(=O)NCCCl", "note": "(stereo not drawn) [A1]", "values": [
      {"measurement": "activité antitumorale sur la leucémie L 1210, in words", "setting": "[1]", "value": "faible activité"},
      {"measurement": "T/C × 100", "setting": "[1]; 5 mg/kg", "value": 100},
      {"measurement": "T/C × 100", "setting": "[1]; 10 mg/kg", "value": 100},
      {"measurement": "T/C × 100", "setting": "[1]; 20 mg/kg", "value": 133},
      {"measurement": "T/C × 100", "setting": "[1]; 30 mg/kg", "value": 133},
      {"measurement": "T/C × 100", "setting": "[1]; 40 mg/kg", "value": 158},
      {"measurement": "T/C × 100", "setting": "[1]; 50 mg/kg", "value": 158},
      {"measurement": "T/C × 100", "setting": "[1]; 60 mg/kg", "value": "Toxique"}
    ]},
    {"smiles": "C[S+]([O-])CCNC(=O)N(CCCl)N=O", "note": "(stereo not drawn) [A2]", "values": [
      {"measurement": "activité antitumorale sur la leucémie L 1210, in words", "setting": "[1]", "value": "forte activité"},
      {"measurement": "T/C × 100", "setting": "[1]; 1 mg/kg", "value": 100},
      {"measurement": "T/C × 100", "setting": "[1]; 5 mg/kg", "value": "∞ (La valeur ∞ signifie que 50 à 100% des animaux sont survivants au jour J : 90)"},
      {"measurement": "T/C × 100", "setting": "[1]; 10 mg/kg", "value": "∞ (La valeur ∞ signifie que 50 à 100% des animaux sont survivants au jour J : 90)"},
      {"measurement": "T/C × 100", "setting": "[1]; 20 mg/kg", "value": 63},
      {"measurement": "T/C × 100", "setting": "[1]; 30 mg/kg", "value": 63},
      {"measurement": "T/C × 100", "setting": "[1]; 40 mg/kg", "value": 63}
    ]},
    {"smiles": "O=NN(CCCl)C(=O)N[C@H]1C(O)O[C@H](CO)[C@@H](O)[C@@H]1O", "note": "(stereo partly drawn) [CHLOROZOTOCINE]", "values": [
      {"measurement": "Augmentation de la durée de survie (I.L.S.: T/C×100)", "setting": "[2]; 15 mg/kg I.P.", "value": "N.S."},
      {"measurement": "Augmentation de la durée de survie (I.L.S.: T/C×100)", "setting": "[3]; 15 mg/kg I.P.", "value": "N.S."},
      {"measurement": "Augmentation de la durée de survie (I.L.S.: T/C×100)", "setting": "[4]; 15 mg/kg I.P.", "value": "N.S."},
      {"measurement": "Augmentation de la durée de survie (I.L.S.: T/C×100)", "setting": "[5]; 15 mg/kg I.P.", "value": "∞ (50% en plus des animaux traités sont guéris)"},
      {"measurement": "Augmentation de la durée de survie (I.L.S.: T/C×100)", "setting": "[6]; 15 mg/kg I.P.", "value": "∞ (50% en plus des animaux traités sont guéris)"},
      {"measurement": "Augmentation de la durée de survie (I.L.S.: T/C×100)", "setting": "[7]; 15 mg/kg I.P.", "value": "N.S."},
      {"measurement": "Augmentation de la durée de survie (I.L.S.: T/C×100)", "setting": "[8]; 15 mg/kg I.P.", "value": "N.S."},
      {"measurement": "Augmentation de la durée de survie (I.L.S.: T/C×100)", "setting": "[9]; 15 mg/kg I.P.", "value": "∞ (50% en plus des animaux traités sont guéris)"}
    ]},
    {"smiles": "O=NN(CCCl)C(=O)NCCO", "note": "[HECNU]", "values": [
      {"measurement": "Augmentation de la durée de survie (I.L.S.: T/C×100)", "setting": "[2]; 10 mg/kg I.P.", "value": "∞ (50% en plus des animaux traités sont guéris)"},
      {"measurement": "Augmentation de la durée de survie (I.L.S.: T/C×100)", "setting": "[3]; 10 mg/kg I.P.", "value": "∞ (50% en plus des animaux traités sont guéris)"},
      {"measurement": "Augmentation de la durée de survie (I.L.S.: T/C×100)", "setting": "[4]; 10 mg/kg I.P.", "value": 182},
      {"measurement": "Augmentation de la durée de survie (I.L.S.: T/C×100)", "setting": "[5]; 10 mg/kg I.P.", "value": "N.S."},
      {"measurement": "Augmentation de la durée de survie (I.L.S.: T/C×100)", "setting": "[6]; 10 mg/kg I.P.", "value": 210},
      {"measurement": "Augmentation de la durée de survie (I.L.S.: T/C×100)", "setting": "[7]; 10 mg/kg I.P.", "value": 198},
      {"measurement": "Augmentation de la durée de survie (I.L.S.: T/C×100)", "setting": "[8]; 10 mg/kg I.P.", "value": 165},
      {"measurement": "Augmentation de la durée de survie (I.L.S.: T/C×100)", "setting": "[9]; 10 mg/kg I.P.", "value": "∞ (50% en plus des animaux traités sont guéris)"}
    ]},
    {"smiles": "CC1(C)O[C@@H]2[C@@H](COC(=O)c3ccc([N+](=O)[O-])cc3)OC(NC(=O)N(CCCl)N=O)[C@@H]2O1", "note": "(stereo partly drawn) [RFCNU]", "values": [
      {"measurement": "Augmentation de la durée de survie (I.L.S.: T/C×100)", "setting": "[2]; 20 mg/kg I.P.", "value": 167},
      {"measurement": "Augmentation de la durée de survie (I.L.S.: T/C×100)", "setting": "[3]; 20 mg/kg I.P.", "value": "N.S."},
      {"measurement": "Augmentation de la durée de survie (I.L.S.: T/C×100)", "setting": "[4]; 20 mg/kg I.P.", "value": "N.S."},
      {"measurement": "Augmentation de la durée de survie (I.L.S.: T/C×100)", "setting": "[5]; 20 mg/kg I.P.", "value": "∞ (50% en plus des animaux traités sont guéris)"},
      {"measurement": "Augmentation de la durée de survie (I.L.S.: T/C×100)", "setting": "[6]; 20 mg/kg I.P.", "value": "N.S."},
      {"measurement": "Augmentation de la durée de survie (I.L.S.: T/C×100)", "setting": "[7]; 20 mg/kg I.P.", "value": 144},
      {"measurement": "Augmentation de la durée de survie (I.L.S.: T/C×100)", "setting": "[8]; 20 mg/kg I.P.", "value": "N.S."},
      {"measurement": "Augmentation de la durée de survie (I.L.S.: T/C×100)", "setting": "[9]; 20 mg/kg I.P.", "value": "N.S."}
    ]}
  ]
}
